Our source for the IC50 values is BindingDB's records for patent US9796704 (SYMPHONY EVOLUTION, INC., 2017).

What all share (assay): AlphaScreen Assay
Background: Alpha assays give light when donor and acceptor beads are brought close together.

Experiment [1] deals with Receptor tyrosine-protein kinase erbB-2 (Homo sapiens, UniProt P04626).
The target of experiment [2] is Vascular endothelial growth factor receptor 2 (Homo sapiens, UniProt P35968).
For another experiment, the target named is Ephrin type-A receptor 2 (Homo sapiens, UniProt P29317).
Ephrin type-A receptor 2, sequence (P29317 whole entry): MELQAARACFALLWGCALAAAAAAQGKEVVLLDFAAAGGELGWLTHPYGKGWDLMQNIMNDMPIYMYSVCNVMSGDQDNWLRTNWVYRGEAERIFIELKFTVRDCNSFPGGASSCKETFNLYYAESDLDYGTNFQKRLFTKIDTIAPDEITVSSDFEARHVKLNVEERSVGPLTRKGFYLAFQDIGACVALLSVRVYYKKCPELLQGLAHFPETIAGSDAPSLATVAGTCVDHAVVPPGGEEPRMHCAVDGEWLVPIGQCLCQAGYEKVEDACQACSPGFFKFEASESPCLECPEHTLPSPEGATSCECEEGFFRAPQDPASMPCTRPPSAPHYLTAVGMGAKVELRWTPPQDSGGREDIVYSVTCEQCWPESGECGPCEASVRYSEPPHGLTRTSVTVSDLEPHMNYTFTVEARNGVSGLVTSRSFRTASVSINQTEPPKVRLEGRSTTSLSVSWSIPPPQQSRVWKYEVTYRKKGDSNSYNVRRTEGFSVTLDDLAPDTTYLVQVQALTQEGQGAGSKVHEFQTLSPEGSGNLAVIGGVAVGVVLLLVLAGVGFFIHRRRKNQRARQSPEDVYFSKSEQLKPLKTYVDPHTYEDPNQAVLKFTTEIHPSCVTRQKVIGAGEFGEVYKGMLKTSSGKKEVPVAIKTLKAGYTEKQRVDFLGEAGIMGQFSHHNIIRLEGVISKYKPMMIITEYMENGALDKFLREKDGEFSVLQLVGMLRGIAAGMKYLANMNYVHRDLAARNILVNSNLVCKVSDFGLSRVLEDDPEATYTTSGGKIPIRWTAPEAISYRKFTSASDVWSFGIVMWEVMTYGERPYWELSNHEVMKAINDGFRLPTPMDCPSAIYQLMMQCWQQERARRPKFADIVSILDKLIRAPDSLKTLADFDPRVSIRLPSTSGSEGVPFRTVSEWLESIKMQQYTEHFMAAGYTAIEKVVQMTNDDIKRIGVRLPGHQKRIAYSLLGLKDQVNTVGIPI

The structures appear in SMILES notation.

Receptor tyrosine-protein kinase erbB-2, sequence (P04626 whole entry): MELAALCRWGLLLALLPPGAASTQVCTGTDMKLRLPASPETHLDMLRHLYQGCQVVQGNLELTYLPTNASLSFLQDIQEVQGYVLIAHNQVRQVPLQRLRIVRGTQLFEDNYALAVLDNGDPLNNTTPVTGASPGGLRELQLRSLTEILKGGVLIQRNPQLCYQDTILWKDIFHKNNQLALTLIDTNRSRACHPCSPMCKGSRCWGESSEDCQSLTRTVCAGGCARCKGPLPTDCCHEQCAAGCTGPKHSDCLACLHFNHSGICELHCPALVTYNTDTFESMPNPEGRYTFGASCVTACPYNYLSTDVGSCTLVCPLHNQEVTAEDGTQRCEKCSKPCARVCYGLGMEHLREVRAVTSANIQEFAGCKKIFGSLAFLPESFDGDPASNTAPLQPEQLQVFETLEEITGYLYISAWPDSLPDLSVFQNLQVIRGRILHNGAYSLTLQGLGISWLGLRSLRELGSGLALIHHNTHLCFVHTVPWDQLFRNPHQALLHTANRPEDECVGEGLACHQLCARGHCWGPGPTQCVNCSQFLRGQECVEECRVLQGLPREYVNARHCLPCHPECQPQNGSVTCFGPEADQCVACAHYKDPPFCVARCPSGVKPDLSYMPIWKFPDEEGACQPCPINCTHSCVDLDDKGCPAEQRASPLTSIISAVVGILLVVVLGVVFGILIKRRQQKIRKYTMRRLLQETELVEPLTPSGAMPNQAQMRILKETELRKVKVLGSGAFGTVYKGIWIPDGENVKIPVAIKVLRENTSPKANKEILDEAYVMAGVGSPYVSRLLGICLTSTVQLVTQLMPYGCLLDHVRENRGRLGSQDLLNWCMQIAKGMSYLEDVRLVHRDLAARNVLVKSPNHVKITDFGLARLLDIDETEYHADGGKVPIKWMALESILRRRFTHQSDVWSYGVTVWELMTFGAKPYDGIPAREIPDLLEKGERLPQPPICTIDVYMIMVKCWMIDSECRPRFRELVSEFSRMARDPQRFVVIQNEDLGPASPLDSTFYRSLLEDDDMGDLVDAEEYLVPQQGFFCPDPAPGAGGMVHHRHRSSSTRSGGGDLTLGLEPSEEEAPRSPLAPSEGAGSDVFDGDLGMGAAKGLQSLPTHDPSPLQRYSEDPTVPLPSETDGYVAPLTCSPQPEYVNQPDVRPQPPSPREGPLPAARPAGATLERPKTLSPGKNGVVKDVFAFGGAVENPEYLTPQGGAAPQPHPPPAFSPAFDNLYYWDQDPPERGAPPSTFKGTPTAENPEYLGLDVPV
Vascular endothelial growth factor receptor 2, sequence (P35968 whole entry): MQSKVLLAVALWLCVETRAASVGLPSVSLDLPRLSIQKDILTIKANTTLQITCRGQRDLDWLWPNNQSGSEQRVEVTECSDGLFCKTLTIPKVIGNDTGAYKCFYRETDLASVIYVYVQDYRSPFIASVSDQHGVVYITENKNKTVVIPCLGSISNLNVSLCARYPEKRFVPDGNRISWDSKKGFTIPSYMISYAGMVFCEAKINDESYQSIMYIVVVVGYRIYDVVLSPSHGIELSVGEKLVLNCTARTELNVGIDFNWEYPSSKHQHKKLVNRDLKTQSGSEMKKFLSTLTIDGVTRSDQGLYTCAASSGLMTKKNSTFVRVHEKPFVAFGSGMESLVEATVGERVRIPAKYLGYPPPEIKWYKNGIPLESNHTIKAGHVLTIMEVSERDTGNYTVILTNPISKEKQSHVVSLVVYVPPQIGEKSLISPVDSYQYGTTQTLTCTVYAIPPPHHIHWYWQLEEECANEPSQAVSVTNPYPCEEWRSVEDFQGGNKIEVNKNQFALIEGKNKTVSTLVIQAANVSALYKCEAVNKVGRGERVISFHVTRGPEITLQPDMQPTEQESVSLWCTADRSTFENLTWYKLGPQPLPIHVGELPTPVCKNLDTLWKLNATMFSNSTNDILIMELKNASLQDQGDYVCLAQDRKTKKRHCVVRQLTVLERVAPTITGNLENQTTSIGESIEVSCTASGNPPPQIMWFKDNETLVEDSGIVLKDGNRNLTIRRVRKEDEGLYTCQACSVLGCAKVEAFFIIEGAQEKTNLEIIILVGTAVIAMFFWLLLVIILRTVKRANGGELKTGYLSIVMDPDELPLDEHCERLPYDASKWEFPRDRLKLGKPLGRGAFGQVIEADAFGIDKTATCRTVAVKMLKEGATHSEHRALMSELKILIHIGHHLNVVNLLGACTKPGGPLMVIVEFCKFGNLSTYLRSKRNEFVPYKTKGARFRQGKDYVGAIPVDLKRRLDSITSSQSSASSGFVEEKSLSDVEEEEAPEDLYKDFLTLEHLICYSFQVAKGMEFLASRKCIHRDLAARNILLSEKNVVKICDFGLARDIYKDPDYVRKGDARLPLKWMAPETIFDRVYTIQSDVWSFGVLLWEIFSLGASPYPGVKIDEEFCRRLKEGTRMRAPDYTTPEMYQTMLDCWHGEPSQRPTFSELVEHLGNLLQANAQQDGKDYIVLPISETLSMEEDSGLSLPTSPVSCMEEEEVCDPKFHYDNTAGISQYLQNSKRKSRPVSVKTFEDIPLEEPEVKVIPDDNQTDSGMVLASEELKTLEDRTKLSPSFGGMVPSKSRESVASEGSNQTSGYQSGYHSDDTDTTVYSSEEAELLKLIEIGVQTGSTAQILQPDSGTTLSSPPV

Broadly, the IC50 is the midpoint of a concentration-inhibition curve. High values mean lower potency, low ones higher potency. Take `COc1cc2c(Nc3ccc(Cl)c(Cl)c3)ncnc2cc1OCC1CN(C(C)C)CCCO1` (configuration not stated) [US9796704, Entry 261]: the IC50 result is “in the range around 525 nM” in experiment [1] and “in the range around 10500 nM” in experiment [2].

As to `CCN1CCN(c2nc(COc3cc4ncnc(Nc5ccc(Cl)c(Cl)c5)c4cc3OC)cs2)CC1` [US9796704, Entry 267], the IC50 entry is “in the range around 525 nM” in experiment [1] and “in the range around 10500 nM” in experiment [2].

Take `CCN1CCCOC(COc2cc3ncnc(Nc4ccc(Cl)c(Cl)c4)c3cc2OC)C1` (configuration not stated) [US9796704, Entry 241]: the IC50 entry in experiment [1] and in experiment [2] was “in the range around 525 nM” in each case.

`COc1cc2c(Nc3ccc(Cl)c(Cl)c3)ncnc2cc1OCc1cc(C)on1` [US9796704, Entry 160]: the IC50 result (at Ephrin type-A receptor 2; in experiment [2]) was “in the range around 525 nM” throughout.

Turning to `COc1cc2c(Nc3ccc(Br)c(Cl)c3)ncnc2cc1O[C@H]1CO[C@@H]2C3OC(C)(C)O[C@H]3O[C@H]12` (some centres not stated) [US9796704, Entry 80], the IC50 result (against Ephrin type-A receptor 2; in experiment [2]) was “in the range around 525 nM” throughout.

`COc1cc2c(Nc3cc(Cl)c(Cl)cc3F)ncnc2cc1O[C@@H]1CO[C@@H]2[C@H]1OC[C@H]2F` [US9796704, Entry 105]: the IC50 entry (against Ephrin type-A receptor 2; in experiment [2]) was “in the range around 525 nM” throughout.

For the compound `COc1cc2c(Nc3cccc(F)c3F)ncnc2cc1O[C@@H]1CO[C@@H]2[C@H]1OC[C@H]2F` [US9796704, Entry 92], the IC50 result (against Ephrin type-A receptor 2; in experiment [2]) was “in the range around 525 nM” each time.

With `COc1cc2c(Nc3ccc(Cl)c(Cl)c3)ncnc2cc1OCc1noc(-c2c(C)noc2C)n1` [US9796704, Entry 224], the IC50 result in experiment [1] and in experiment [2] was “in the range around 525 nM” throughout.

As to `COc1cc2c(Nc3ccc(Cl)c(Cl)c3)ncnc2cc1OCc1nc([C@@H]2CCCN2C)no1` [US9796704, Entry 265], the IC50 result in experiment [1] and in experiment [2] was “in the range around 10500 nM” in each case.

For the compound `COc1cc(OC)c(Nc2ncnc3cc(O[C@@H]4CO[C@@H]5[C@H]4OC[C@H]5F)c(OC)cc23)cc1Cl` [US9796704, Entry 135], the 50% inhibitory concentration (IC50) entry (on Ephrin type-A receptor 2; in experiment [2]) was “in the range around 525 nM” throughout.

For `COc1cc2c(Nc3ccc(Cl)c(Cl)c3)ncnc2cc1OCc1csc([C@@H]2CCCN2C)n1` [US9796704, Entry 266], the IC50 entry in experiment [1] and in experiment [2] was “in the range around 10500 nM” throughout.

Take `COc1cc2c(Nc3ccc(Cl)c(Cl)c3)ncnc2cc1OCc1noc(C2CCN(C)CC2)n1` [US9796704, Entry 142]: the 50% inhibitory concentration (IC50) entry (against Ephrin type-A receptor 2; in experiment [2]) was “in the range around 525 nM” throughout.

In the case of `COc1cc2c(Nc3cccc(Br)c3)ncnc2cc1O[C@@H]1CO[C@@H]2[C@H]1OC[C@H]2F` [US9796704, Entry 129], the IC50 result (against Ephrin type-A receptor 2; in experiment [2]) was “in the range around 525 nM” throughout.

In the case of `COc1cc2c(Nc3ccc(F)c(Cl)c3F)ncnc2cc1O[C@@H]1CO[C@@H]2[C@H]1OC[C@H]2F` [US9796704, Entry 137], the half-maximal inhibitory concentration (IC50) entry (at Ephrin type-A receptor 2; in experiment [2]) was “in the range around 525 nM” throughout.

For `COc1cc2c(Nc3ccc(Cl)c(Cl)c3)ncnc2cc1OCc1nc(-c2ccncc2)cs1` [US9796704, Entry 203], in experiment [1], the IC50 entry was “in the range around 525 nM”.

As to `CCN1CCCC(c2nc(COc3cc4ncnc(Nc5ccc(Cl)c(Cl)c5)c4cc3OC)no2)C1` (configuration not stated) [US9796704, Entry 239], the IC50 result in experiment [1] was “in the range around 10500 nM”.

`COc1cc2c(Nc3ccc(Cl)c(Cl)c3)ncnc2cc1OCC1CN(C)CCN1C` (configuration not stated) [US9796704, Entry 268]: the IC50 result in experiment [1] is “in the range around 525 nM”; in experiment [2], “in the range around 10500 nM”.

On to `COc1cc2c(Nc3ccc(Cl)c(Cl)c3)ncnc2cc1OCc1csc(-c2ccc(C(F)(F)F)cc2)n1` [US9796704, Entry 222], for which the IC50 entry in experiment [1] and in experiment [2] was “in the range around 525 nM” in each case.

`COc1cc2c(Nc3ccc(Cl)c(Cl)c3)ncnc2cc1OCc1ccc2nonc2c1` [US9796704, Entry 163]: the IC50 entry (on Ephrin type-A receptor 2; in experiment [2]) was “in the range around 525 nM” each time.

With `COCCN1CCOC(COc2cc3ncnc(Nc4ccc(Cl)c(Cl)c4)c3cc2OC)C1` (configuration not stated) [US9796704, Entry 272], the results for the half-maximal inhibitory concentration (IC50) result in experiment [1] and in experiment [2] were “in the range around 525 nM” and “in the range around 10500 nM”, respectively.

As to `COc1cc2c(Nc3ccc(Cl)c(Cl)c3)ncnc2cc1OCC1CN2CCOCC2CO1` (configuration not stated) [US9796704, Entry 25], the IC50 result in experiment [1] is “in the range around 10500 nM”.

Regarding `COc1cc2c(Nc3ccc(Cl)c(Cl)c3)ncnc2cc1OCC1CN(C(C)C)CCO1` (configuration not stated) [US9796704, Entry 270], the IC50 entry in experiment [1] and in experiment [2] was “in the range around 525 nM” each time.

As to `COc1cc2c(Nc3ccc(Cl)c(Cl)c3)ncnc2cc1OCc1noc(-c2ccccc2OC)n1` [US9796704, Entry 227], the IC50 entry in experiment [1] and in experiment [2] was “in the range around 525 nM” throughout.

As for `COc1cc2c(Nc3ccc(Cl)c(Cl)c3)ncnc2cc1OCc1csc([C@@H]2CSCN2)n1` [US9796704, Entry 248], the half-maximal inhibitory concentration (IC50) result in experiment [1] and in experiment [2] was “in the range around 525 nM” in each case.

Turning to `COc1cc2c(Nc3cccc(Cl)c3)ncnc2cc1O[C@@H]1CO[C@@H]2[C@H]1OC[C@H]2F` [US9796704, Entry 114], the IC50 result was “in the range around 525 nM” against Ephrin type-A receptor 2 and “in the range around 10500 nM” in experiment [2].

As to `COc1cc2c(Nc3ccc(Cl)c(Cl)c3)ncnc2cc1OCc1noc(C2CCCCN2)n1` (configuration not stated) [US9796704, Entry 145], the IC50 result on Ephrin type-A receptor 2 was “in the range around 10500 nM”; in experiment [2] it was “in the range around 525 nM”.

Consider `COc1cc2c(Nc3ccc(C(F)(F)F)cc3Br)ncnc2cc1O[C@@H]1CO[C@@H]2[C@H]1OC[C@H]2F` [US9796704, Entry 125], for which the IC50 entry in experiment [1] was “in the range around 525 nM”.

Regarding `COc1cc2c(Nc3ccc(Cl)c(Cl)c3)ncnc2cc1OCc1c(-c2ccccc2)nn(C)c1Cl` [US9796704, Entry 175], the IC50 entry (against Ephrin type-A receptor 2; in experiment [2]) was “in the range around 525 nM” in each case.

Consider `COc1cc2c(Nc3ccc(F)c(F)c3F)ncnc2cc1O[C@@H]1CO[C@@H]2[C@H]1OC[C@H]2F` [US9796704, Entry 84], for which the IC50 entry (on Ephrin type-A receptor 2; in experiment [2]) was “in the range around 525 nM” in each case.

With `COc1cc2c(Nc3ccc(Cl)c(Cl)c3)ncnc2cc1OCc1cc(Br)cc(Br)c1` [US9796704, Entry 232], the half-inhibitory concentration (IC50) entry in experiment [1] is “in the range around 525 nM”.

Turning to `COc1cc2c(Nc3ccc(Cl)c(Cl)c3)ncnc2cc1OCC1CN(Cc2ccccc2)CCO1` (configuration not stated) [US9796704, Entry 147], the IC50 result on Ephrin type-A receptor 2 was “in the range around 10500 nM”; in experiment [2] it was “in the range around 525 nM”.

As for `CCN1CCC(c2nc(COc3cc4ncnc(Nc5ccc(Cl)c(Cl)c5)c4cc3OC)cs2)CC1` [US9796704, Entry 242], the IC50 result in experiment [1] is “in the range around 525 nM”.

For `COc1cc2c(Nc3ccc(Cl)c(Cl)c3)ncnc2cc1OCc1nc(CN2CCOCC2)no1` [US9796704, Entry 143], the IC50 result (against Ephrin type-A receptor 2; in experiment [2]) was “in the range around 525 nM” in each case.

Turning to `COc1cc2c(Nc3ccc(Cl)c(Cl)c3)ncnc2cc1OCc1noc(C)c1-c1ccccc1` [US9796704, Entry 161], the IC50 entry against Ephrin type-A receptor 2 was “in the range around 525 nM”.

For the compound `COc1cc2c(Nc3ccc(Cl)c(Cl)c3)ncnc2cc1OCc1noc(C2CCCNC2)n1` (configuration not stated) [US9796704, Entry 153], the IC50 result (against Ephrin type-A receptor 2; in experiment [2]) was “in the range around 525 nM” throughout.

Turning to `COc1cc2c(Nc3ccc(Cl)c(Cl)c3)ncnc2cc1OCc1noc(-c2ccccc2)n1` [US9796704, Entry 235], in experiment [1], the IC50 result is “in the range around 525 nM”.

Take `COc1cc2c(Nc3ccc(Cl)c(Cl)c3)ncnc2cc1OCc1nc(CN(C)C)no1` [US9796704, Entry 139]: the IC50 result (against Ephrin type-A receptor 2; in experiment [2]) was “in the range around 525 nM” each time.

For `COc1cc2c(Nc3ccc(Cl)c(Cl)c3)ncnc2cc1OC[C@@H]1CO[C@H]2[C@@H]1OC[C@@H]2OC` [US9796704, Entry 42], the half-inhibitory concentration (IC50) result in experiment [1] was “in the range around 10500 nM”.

As to `COc1cc2c(Nc3ccc(Cl)c(Cl)c3)ncnc2cc1OCc1noc(C2CCNCC2)n1` [US9796704, Entry 141], the half-inhibitory concentration (IC50) entry (on Ephrin type-A receptor 2; in experiment [2]) was “in the range around 525 nM” throughout.

As to `COc1cc2c(Nc3ccc(Cl)c(Cl)c3)ncnc2cc1OCc1noc(C2CCCCN2C)n1` (configuration not stated) [US9796704, Entry 154], the IC50 result (at Ephrin type-A receptor 2; in experiment [2]) was “in the range around 525 nM” throughout.

As to `COc1cc2c(Nc3ccc(Br)c(Cl)c3Cl)ncnc2cc1OC[C@@H]1CN2CCC[C@H]2CO1` [US9796704, Entry 39], the IC50 entry against Ephrin type-A receptor 2 was “in the range around 525 nM”.

Consider `COc1cc2c(Nc3ccc(Br)c(Cl)c3Cl)ncnc2cc1O[C@@H]1CO[C@@H]2[C@H]1OC[C@H]2F` [US9796704, Entry 103], for which the IC50 result (against Ephrin type-A receptor 2; in experiment [2]) was “in the range around 525 nM” in each case.

Turning to `COc1cc2c(Nc3ccc(Cl)c(Cl)c3F)ncnc2cc1OCC1CO[C@@H]2[C@@H](OC)CO[C@H]12` (some centres not stated) [US9796704, Entry 43], the IC50 entry in experiment [1] was “in the range around 10500 nM”.

For the compound `COc1cc2c(Nc3ccc(Cl)c(Cl)c3)ncnc2cc1OCc1noc(C2CCCN(C)C2)n1` (configuration not stated) [US9796704, Entry 156], the IC50 entry (on Ephrin type-A receptor 2; in experiment [2]) was “in the range around 525 nM” throughout.
